Experimental data published in ChEMBL document CHEMBL1141570, “Glycosidase profiling with immobilised glycosidase-inhibiting iminoalditols--a proof-of-concept study” (Bioorg Med Chem Lett, 2008).

Target: T1, Beta-glucosidase (Agrobacterium sp. ATCC 21400, UniProt P12614)
T1 sequence (P12614 whole entry): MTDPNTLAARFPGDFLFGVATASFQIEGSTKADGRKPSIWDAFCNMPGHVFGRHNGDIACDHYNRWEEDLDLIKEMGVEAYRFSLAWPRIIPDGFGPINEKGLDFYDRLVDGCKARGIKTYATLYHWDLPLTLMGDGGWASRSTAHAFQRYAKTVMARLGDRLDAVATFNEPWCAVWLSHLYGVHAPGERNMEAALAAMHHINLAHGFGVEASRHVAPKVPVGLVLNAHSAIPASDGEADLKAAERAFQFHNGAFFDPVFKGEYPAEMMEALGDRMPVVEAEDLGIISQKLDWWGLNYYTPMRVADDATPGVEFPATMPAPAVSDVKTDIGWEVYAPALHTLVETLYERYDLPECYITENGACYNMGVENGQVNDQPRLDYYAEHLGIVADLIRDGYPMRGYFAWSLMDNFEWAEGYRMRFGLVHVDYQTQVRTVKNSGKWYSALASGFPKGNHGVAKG
Assay: Inhibition of Agrobacterium sp. beta-glucosidase

Row | SMILES | Ki
1 | COC(=O)CCCCCNC(=O)[C@H](CCCCN1C[C@@H](O)[C@@H](O)[C@H](O)[C@H]1CO)NS(=O)(=O)c1cccc2c(N(C)C)cccc12 | 1000 µM
2 | COC(=O)CCCCCNC(=O)CCCCCN1[C@H](CO)[C@@H](O)[C@H](O)[C@H]1CNS(=O)(=O)c1cccc2c(N(C)C)cccc12 | 0.9 µM
3 | COC(=O)CCCCCNC(=O)[C@H](CCCCN1C[C@H](O)[C@@H](O)[C@H](O)[C@H]1CO)NS(=O)(=O)c1cccc2c(N(C)C)cccc12 | 6.2 µM
